Laboratory results taken from the NIST ThermoML archive (doi:10.1021/acs.jced.5b00936).

What was measured:
[1] = for viscosity / mass density: 100 kPa, Liquid; for viscosity: Concentric cylinders viscometry; for mass density: Vibrating tube method
[2] = refractive index (Na D-line) (dimensionless); conditions: 100 kPa, Liquid, Standard Abbe refractometry

CCCC[P+](CCCC)(CCCC)CCCC.O=S(=O)([O-])CC(O)CNC1CCCCC1
Conditions | mass density, [1] [kg/m3] | refractive index, [2] | viscosity, [1] [mPa·s]
288.15 K | 1037.4 | 1.49654 | 32956
293.15 K | 1034.2 | 1.49497 | 17587
298.15 K | 1031.1 | 1.49313 | 10098
303.15 K | 1028.2 | 1.49162 | 6481.6
308.15 K | 1025.1 | 1.48983 | 3796
313.15 K | 1022.1 | 1.48782 | 2441.9
318.15 K | 1019 | 1.48724 | 1624.2
323.15 K | 1016 | 1.48547 | 1109.7
328.15 K | 1012.9 | 1.48368 | 779.6
333.15 K | 1009.8 | 1.48202 | 558.2
338.15 K | 1006.8 | 1.48045 | 409
343.15 K | 1003.8 | 1.47902 | 304.6
348.15 K | 1000.9 | 1.47764 | 231
353.15 K | 997.9 | 1.4763 | 177.9

C[N+](C)(C)CCO.O=S(=O)([O-])CCN(CCO)CCO
Conditions | mass density, [1] [kg/m3] | refractive index, [2] | viscosity, [1] [mPa·s]
293.15 K | 1248 | – | 33236
298.15 K | 1244.8 | 1.50047 | 20518
303.15 K | 1241.8 | 1.49937 | 13056
308.15 K | 1238.9 | 1.49826 | 8631.6
313.15 K | 1236.1 | 1.49716 | 5848.4
318.15 K | 1233.3 | 1.49602 | 4045.8
323.15 K | 1230.5 | 1.49476 | 2861
328.15 K | 1227.7 | 1.49317 | 2061.7
333.15 K | 1224.9 | 1.49148 | 1526.8
338.15 K | 1222.2 | 1.49052 | 1136.6
343.15 K | 1219.5 | 1.48921 | 858.1
348.15 K | 1216.8 | 1.48749 | 658.8
353.15 K | 1214.1 | 1.48633 | 512.7

C[N+](C)(C)CCO.O=S(=O)([O-])CC(O)CNC1CCCCC1 (configuration not stated)
Conditions | Triple point temperature [K]
[1], Crystal, DSC | 365.15

C[N+](C)(C)CCO.O=S(=O)([O-])CC(O)CNC(CO)(CO)CO (configuration not stated)
Conditions | mass density, [1] [kg/m3] | refractive index, [2] | viscosity, [1] [mPa·s]
323.15 K | – | 1.50991 | –
328.15 K | 1316.4 | 1.50884 | 56778
333.15 K | 1313.3 | 1.50769 | 34168
338.15 K | 1310.3 | 1.50654 | 21501
343.15 K | 1307.4 | 1.50552 | 14013
348.15 K | 1304.6 | 1.5044 | 9355.9
353.15 K | 1301.8 | 1.50327 | 6385.4

CCCC[N+](CCCC)(CCCC)CCCC.O=S(=O)([O-])CCN(CCO)CCO
Conditions | mass density, [1] [kg/m3] | refractive index, [2] | viscosity, [1] [mPa·s]
288.15 K | – | 1.49093 | –
293.15 K | – | 1.48966 | –
298.15 K | – | 1.48834 | –
303.15 K | – | 1.48706 | –
308.15 K | – | 1.48577 | –
313.15 K | 1052.4 | 1.48445 | 12001
318.15 K | 1049.6 | 1.48317 | 7582.5
323.15 K | 1046.8 | 1.48185 | 4970.6
328.15 K | 1044 | 1.48052 | 3346.6
333.15 K | 1041.2 | 1.4792 | 2305.7
338.15 K | 1038.4 | 1.47784 | 1621.8
343.15 K | 1035.6 | 1.47646 | 1163.2
348.15 K | 1032.8 | 1.47502 | 848.3
353.15 K | 1030.1 | 1.47363 | 630

C[N+](C)(C)CCO.O=S(=O)([O-])CC(O)CN1CCOCC1 (configuration not stated)
Conditions | mass density, [1] [kg/m3] | refractive index, [2] | viscosity, [1] [mPa·s]
308.15 K | 1235.3 | 1.49778 | 49189
313.15 K | 1232 | 1.49658 | 28090
318.15 K | 1228.7 | 1.49531 | 16897
323.15 K | 1225.6 | 1.49453 | 10898
328.15 K | 1222.5 | 1.49323 | 6933.2
333.15 K | 1219.5 | 1.49185 | 4600.3
338.15 K | 1216.5 | 1.48995 | 3099.4
343.15 K | 1213.5 | 1.48831 | 2158.8
348.15 K | 1211.6 | 1.48671 | 1545.5
353.15 K | 1209.7 | 1.4852 | 1122.3
